Values of other authors in US6239177A, “Tranilast-containing preparation for external application and method of producing the same” (Lead Chemical Co., Ltd., priority 1996, dated 2001).
Like-named read-outs stand apart in the source and are kept apart here.

Columns and labels:
[1] = system: keloid and hypertrophic scar; conditions: Ichikawa 1992; Suzawa 1992
[2] = system: carrageenan-induced granulation tissue; conditions: for drug concentration in the skin tissue: one hour after final administration, 60 min

COc1ccc(C=CC(=O)Nc2ccccc2C(=O)O)cc1OC [tranilast, N-(3,4-dimethoxycinnamoyl)-anthranilic acid]
pharmaceutical effect on keloid and hypertrophic scar [1]: excellent pharmaceutical effect
drug concentration in the skin tissue ([2]; oral 50 mg/kg for consecutive 14 days): 4.2 ± 0.4 µg/g
drug concentration in the skin tissue ([2]; oral 100 mg/kg for consecutive 14 days): 10.3 ± 0.9 µg/g
drug concentration in the skin tissue ([2]; oral 200 mg/kg for consecutive 14 days): 23.17 ± 1.7 µg/g
inhibitory effect (carrageenan-induced granulation tissue) ([2]; oral 50, 100, and 200 mg/kg for consecutive 14 days): dose-dependent inhibitory effect was observed
solubility in dimethyl formamide, pyridine, dioxane, and acetone (dimethyl formamide, pyridine, dioxane, acetone): soluble
solubility in a kind of fatty acid and its ester, animal and vegetable oils and fats, terpene compounds, and alcohols (fatty acids/esters, oils and fats, terpenes, alcohols): can be solved to some extent
solubility in methanol, ethanol, ethyl acetate (methanol, ethanol, ethyl acetate): hardly soluble
solubility in water: extremely sparingly soluble
solubility in water (listed as Tranilast): sparingly soluble
